Measured values reported in BindingDB's records for doi:10.1021/jm3017656 (Vanderbilt University School of Medicine, 2013).

What follows are compounds tested against T1, Androgen receptor (Homo sapiens, UniProt P10275) (assay: Agonist activity at androgen receptor (unknown origin) expressed in HeLa cells co-expressing PSA-(ARE)4-Luc13 assessed as induction of DHT-induced luciferase activity after […] by luciferase reporter gene assay).
T1 sequence (P10275 whole entry): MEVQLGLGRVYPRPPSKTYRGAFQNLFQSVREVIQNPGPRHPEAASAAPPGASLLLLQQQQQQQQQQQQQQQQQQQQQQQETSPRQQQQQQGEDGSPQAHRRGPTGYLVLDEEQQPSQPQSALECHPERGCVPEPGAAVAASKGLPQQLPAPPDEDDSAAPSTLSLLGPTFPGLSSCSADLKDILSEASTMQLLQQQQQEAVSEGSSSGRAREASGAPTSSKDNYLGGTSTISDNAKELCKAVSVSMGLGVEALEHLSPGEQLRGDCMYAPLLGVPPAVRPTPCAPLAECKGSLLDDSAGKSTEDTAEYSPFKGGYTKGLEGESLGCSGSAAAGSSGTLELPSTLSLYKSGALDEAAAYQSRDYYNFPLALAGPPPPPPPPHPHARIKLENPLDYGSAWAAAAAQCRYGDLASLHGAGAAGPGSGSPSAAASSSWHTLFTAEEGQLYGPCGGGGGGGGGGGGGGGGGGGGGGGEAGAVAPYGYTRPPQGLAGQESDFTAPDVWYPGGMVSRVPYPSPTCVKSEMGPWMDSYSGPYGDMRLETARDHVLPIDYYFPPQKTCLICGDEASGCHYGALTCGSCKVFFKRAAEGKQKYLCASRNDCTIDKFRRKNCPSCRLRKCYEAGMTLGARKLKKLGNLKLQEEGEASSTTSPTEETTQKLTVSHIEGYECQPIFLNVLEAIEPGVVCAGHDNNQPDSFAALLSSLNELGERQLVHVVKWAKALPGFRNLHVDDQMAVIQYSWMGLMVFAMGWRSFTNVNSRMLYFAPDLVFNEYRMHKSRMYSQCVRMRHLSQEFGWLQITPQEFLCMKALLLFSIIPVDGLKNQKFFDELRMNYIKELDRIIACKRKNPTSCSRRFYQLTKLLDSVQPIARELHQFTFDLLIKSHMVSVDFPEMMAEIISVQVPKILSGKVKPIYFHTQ

Row | EC50 [nM] | SMILES
1 | 0.14 | COc1ccc2c(c1)c(C)c(CCC(=O)NS(C)(=O)=O)n2C(=O)c1ccc(Cl)cc1
2 | 0.15 | COc1ccc2c(c1)c(C)c(CCC(=O)O)n2C(=O)c1ccc(Cl)cc1
3 | 0.1 | COc1ccc2c(c1)c(CC(=O)NS(=O)(=O)C(F)(F)F)cn2C(=O)c1ccc(Cl)cc1
4 | 0.14 | COc1ccc2c(c1)c(CC(=O)O)c(C)n2C(=O)c1ccc(Cl)cc1 [indometacin]
